The test system of one series is 4T1.2. In words: Antitumor activity against mouse 4T1.2 cells implanted in BALB/c mouse assessed as median disease latency time at 25 mg/kg/day for 10 days (Rvb =33 days). The format is functional.
Series [1] can be described thus: Cytotoxicity in African green monkey COS7 cells assessed as reduction in cell viability incubated for 24 hrs by Alamar blue dye based assay. Further details: species or system COS-7. Conditions: chlorocebus aethiops. (In general: Alamar Blue is a resazurin reagent that responds to reducing activity.)
Series [2] can be described thus: Critical micellar concentration of the compound. The series is classed as physicochemical.
The nature of series [3]: Cytotoxicity in HEK293 cells assessed as reduction in cell viability incubated for 24 hrs by Alamar blue dye based assay. Conditions: human.
The target of series [4] is T1, Transcription factor SOX-18 (Mus musculus) (UniProt P43680).
T1 sequence (whole entry): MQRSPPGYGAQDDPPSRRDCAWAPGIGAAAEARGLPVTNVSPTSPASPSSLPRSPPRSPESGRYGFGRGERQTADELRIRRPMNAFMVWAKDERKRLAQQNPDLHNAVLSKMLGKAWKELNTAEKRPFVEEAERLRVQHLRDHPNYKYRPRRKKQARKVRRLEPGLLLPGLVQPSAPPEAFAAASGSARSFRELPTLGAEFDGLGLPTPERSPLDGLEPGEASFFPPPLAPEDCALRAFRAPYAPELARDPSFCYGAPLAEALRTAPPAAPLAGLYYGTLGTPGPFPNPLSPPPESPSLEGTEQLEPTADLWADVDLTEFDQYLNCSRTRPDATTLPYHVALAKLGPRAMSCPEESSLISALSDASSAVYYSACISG
In words: Competitive binding affinity to full-length mouse SOX18 expressed in Sf9 cells assessed as reduction in SOX1 8- DNA binding by measuring FP-bound fraction at 50 uM using FAM-labelled Prox1 -DNA element incubated for 5 mins in dark at room temperature, 10 mins at 37 degC and 30 mins at room temperature by fluorescence polarization assay relative to control. Further details: scale not given: the % may be the effect or the level left. (In general: Polarisation of emitted light reports the rotation of a fluorescent probe.)

The nature of series [5]: Cytotoxicity in human HepG2 cells assessed as reduction in cell viability incubated for 24 hrs by Alamar blue dye based assay.
Series [6] has as its target T1, Transcription factor SOX-18 (Mus musculus). Nature of the series: Competitive binding affinity to full-length mouse SOX18 expressed in Sf9 cells assessed as reduction in SOX1 8- DNA binding by measuring FP-bound fraction at 200 uM using FAM-labelled Prox1 -DNA element incubated for 5 mins in dark at room temperature, 10 mins at 37 degC and 30 mins at room temperature by fluorescence polarization assay relative to control. Further details: scale not given: the % may be the effect or the level left.

The target is the same in series [7]. In words: Competitive binding affinity to full-length mouse SOX18 expressed in Sf9 cells assessed as reduction in SOX1 8- DNA binding using FAM-labelled Prox1 -DNA element at 1 to 1000 uM incubated for 5 mins in dark at room temperature, 10 mins at 37 degC and 30 mins at room temperature by fluorescence polarization assay.

Activity calls are given as the source filed them. The calls are words filed in the database; no cut-off is given here. Where only a bound is given, the exact number is not on record here.

Take `CC(=O)Oc1ccccc1C(=O)O` [ASPIRIN]: the Time in the series on 4T1.2 was found to be 44 days.
In the case of `COc1ccc(OCC(=O)c2ccc(O)cc2O)cc1`, the CC50 (in general, the concentration at which the toxic effect on the cells reaches its halfway point) at 24 h in series [1] was more than 200 µM. The compound further gave a CMC in series [2] of more than 1000 µM.
As for `CCN(CC)C(=O)c1c(CCc2ccc3ccccc3c2)cccc1OC`, the half-maximal cytotoxic concentration (CC50) at 24 h in series [3] came to 62.6 µM; in series [5], 38.5 µM. Further, the values for the Activity in series [4] and in series [6] were 100% and 117%, respectively.
Take `O=C(COc1ccc2ccccc2c1)c1ccc(O)cc1O`: in series [1], the CC50 at 24 h came to 98.6 µM. In series [2], the CMC was more than 1000 µM.
For the compound `O=C(O)c1c(O)cccc1COCCc1ccccc1`, the CC50 at 24 h in series [1] is more than 200 µM.
Consider `CCCCCCCCCc1cccc(O)c1C(=O)OC`, for which the CMC in series [2] was 20 µM.
For `COc1cccc(CCCCCCc2ccccc2)c1C(=O)O`, the CC50 at 24 h in series [1] was more than 200 µM. Also, the CMC in series [2] is more than 1000 µM.
Regarding `COc1cc(O)c(C(=O)O)c(C=Cc2ccc3ccccc3c2)c1` (mixture of isomers), the Activity in series [6] was 19.8%.
Consider `O=C1N=C(N2CCCC2)S/C1=C/c1ccc(O)cc1O`, for which, in series [1], the CC50 at 24 h is more than 200 µM. For the same compound, the CMC in series [2] was more than 1000 µM.
Consider `COC(=O)c1c(O)cccc1CCCCC(C)CCCC(C)C` (stereo unspecified), for which the CMC in series [2] was 20 µM.
Regarding `CCN(CC)C(=O)c1c(CCc2ccc3ccccc3c2)cc(OC)cc1OC`, the CC50 at 24 h in series [3] is 85.8 µM; in series [5], 35.8 µM. Besides, the Activity came to 97.3% in series [4] and 107% in series [6].
Take `Cc1cccc2c(=O)c3c(O)cc(O)cc3oc12`: in series [1], the CC50 at 24 h was more than 200 µM. Besides, the CMC in series [2] is more than 1000 µM.
In the case of `Cc1ccc(Cl)c(Nc2ccccc2C(=O)O)c1Cl`, the outcome in series [7] was Active.
As for `CCCCCCCCCc1cccc(OC)c1C(=O)OC`, in series [2], the CMC worked out at 20 µM.
Take `O=C(O)c1cccnc1Nc1cccc(C(F)(F)F)c1`: the outcome in series [7] was Active.
Turning to `Cc1cc(O)c(C(=O)O)c(CCc2ccc3ccccc3c2)c1`, the CC50 at 24 h in series [5] was 377 µM.
On to `COC(=O)c1c(O)cccc1CCc1ccc2ccccc2c1`, for which the CMC in series [2] came out at 20 µM.
On the same count and under the same terms, to `CC(C)CCCC(C)CCCCc1cccc(O)c1C(=O)O` (stereo unspecified) belongs 30 µM.
Regarding `O=C(O)c1ccccc1Nc1cccc(C(F)(F)F)c1`, the outcome in series [7] was Active.
Turning to `COc1cccc(C=Cc2ccc3ccccc3c2)c1C(=O)O` (mixture of isomers), in series [5], the cytotoxic concentration (CC50) at 24 h is more than 100 µM.

The values above are taken from ChEMBL document CHEMBL4420080, “Inhibitors of sox18 protein activity for treating angiogenesis- and/or lymphangiogenesis-related diseases” (2018).
